Where no end group is shown, it is not given here.
What was measured:
MG63 cells [1] = assay: p53 protein expression level, immunofluorescence staining quantified with ImageJ, osteosarcoma cells; type: cell-based, human; design: P53: unit not given here; details: for P53: Table 9, in association with SiRNA Integrin alpha 3+SiRNA Integrin beta 1 (SEQ ID NO: 141 to 163); for p53 (%): Table 4, cyclic GFR-binding peptide in association with SiRNA Integrin alpha 3 and SiRNA Integrin beta 1, 400 ng/mL, 24 hours
Experimental: (§1) The following starting materials and reagents were used: • Type-I collagen sponge was obtained from Sigma®. • PBS 1× was obtained from Gibco®. • MilliQ water: is water characterised in terms of resistivity (typically 18.2 MΩ·cm at 25° C.). • Low glucose Dulbecco's Modified Eagle Medium (DMEM) was obtained from Invitrogen® • Minimum Essential Medium Eagle without ascorbic acid (αMEM) was obtained from Invitrogen®. • All of the cell culture experiments were carried out without any serum in the medium for the first 8 hours of culture. • Osteosarcoma cells: MG63 cells were obtained from ATCC®. These cells were cultured in DMEM (Eagle's Minimum Essential Medium) medium supplemented with 10% fetal calf serum (FCS) and 1% penicillin/streptomycin. All cells were used at a low passage number (passage 10), were subconfluently cultured and were seeded at 10^4 cells/cm^2 for the purpose of the experiments. • Chondrosarcoma cells Hs819.T cells were obtained from ATCC®. These cells were cultured in DMEM (Eagle's Minimum Essential Medium) medium supplemented with 10% fetal calf serum (FCS) and 1% penicillin/streptomycin. All cells were used at a low passage number (passage 10), were subconfluently cultured and were seeded at 10^4 cells/cm^2 for the purpose of the experiments. • Rhabdomyosarcoma cells: A-673 cells were obtained from ATCC®. These cells were cultured in DMEM (Eagle's Minimum Essential Medium) medium supplemented with 10% fetal calf serum (FCS) and 1% penicillin/streptomycin. All cells were used at a low passage number (passage 10), were subconfluently cultured and were seeded at 10^4 cells/cm^2 for the purpose of the experiments. • Adenocarcinoma cells: HCC4006 cells were obtained from ATCC®. These cells were cultured in RPMI-1640 medium (obtained from ATCC®) supplemented with 10% fetal calf serum (FCS) and 1% penicillin/streptomycin. All cells were used at a low passage number (passage 10), were subconfluently cultured and were seeded at 10^4 cells/cm^2 for the purpose of the experiments. • CMFDA is a Cell Tracker Green obtained from Invitrogen®. • DAPI was obtained from Sigma®. • Fetal bovine serum (FBS) was obtained from Gibco®. • Penicillin/streptomycin was obtained from Invitrogen®. • The AlamarBlue® assay was obtained from Molecular Probes®. • Anti phospho-p53 antibody was obtained from Santa Cruz Biotechnology®, • Anti pRB antibody was obtained from Santa Cruz Biotechnology®, • Monoclonal anti-integrin (extracellular domain) αv, α5, α3, α4, β1, β3, β5 and β9 antibodies were obtained from Santa Cruz Biotechnology®, • Cell cytoskeletal filamentous actin (F-actin) was visualized by Alexa Fluor® 488 phalloidin Sigma® labeling. • Monoclonal anti-vinculin antibody (clone hVIN-1, produced in mouse) was obtained from Sigma®.
(§2) • All of the peptides were synthetized using conventional solution and/or solid phase peptide synthesis methods. • All of the experiments were performed with a concentration of 400 ng/mL of GFR-binding compound(s) as defined herein. • All cell culture experiments were performed with cultures on plastic coated with type-I collagen in order to mimic the physiological conditions of the human body. • The compositions of pharmaceutical compositions used in the examples below are summarized in the following table:
(§3) The cells were first fixed for 20 min with 4% paraformaldehyde/PBS at 4° C. After fixation, the cells were permeabilized in PBS containing 1% Triton X-100 for 15 min. Protein immunofluorescent visualization was performed by first treating the cells with 1% (v/v) specific monoclonal antibodies for 1 hour at 37° C. Then the samples were incubated with Alexa Fluor® 568 or 647 (F(ab′)2 fragment of IgG(H+L)) during 30 min at room temperature. The cell nuclei were counterstained in 20 ng/mL DAPI for 10 min at room temperature.
(§4) For this type of quantification the freeware image analysis ImageJ® software was used. […]

MG63 cells [2] = assay: pRB phosphorylation level, immunofluorescence staining quantified with ImageJ, osteosarcoma cells; type: cell-based, human; details: MG63 cells; for pRB: Table 9, in association with SiRNA Integrin alpha 3+SiRNA Integrin beta 1 (SEQ ID NO: 141 to 163); for pRB (%): Table 4, cyclic GFR-binding peptide in association with SiRNA Integrin alpha 3 and SiRNA Integrin beta 1, 400 ng/mL, 24 hours
Experimental: as §1, §2, §3, §4

growth factor receptors = assay: cell-based or functional assay

Row | Molecule | P53 (MG63 cells [1]) | pRB (MG63 cells [2]) | p53 (%) (MG63 cells [1]) | pRB (%) (MG63 cells [2]) | p-Smad1/5/8 (%) (growth factor receptors)
1 | CPKPSSAPTQLSAISTLYLDDSSNVILKNYQMIVVRA (Non-cyclic GFR-binding peptide) [SEQ ID NO: 159] | 44 | 9 |  |  | 
2 | CPSSAPTQLSATSVLYYDDSSNVILRKHRQHNK (Non-cyclic GFR-binding peptide) [SEQ ID NO: 150] | 41 | 11 |  |  | 
3 | CRNVQCRPTQVQLSAISTLYLEIVRKKPLKNYQTLEDH (Non-cyclic GFR-binding peptide) [SEQ ID NO: 149] | 35 | 12 |  |  | 
4 | CSIPKASSVPTELSATSVLYYDEYDEKVVLRKHEMVVEG (Non-cyclic GFR-binding peptide) [SEQ ID NO: 153] | 39 | 10 |  |  | 
5 | CTVPKPSSAPTQLSPISVLYKDDSSNVILKYHYNMVVRASGSH (Non-cyclic GFR-binding peptide) [SEQ ID NO: 147] | 37 | 8 |  |  | 
6 | GTPGPKVPKPSSAPTQLSAISTLYLDEYDKVVLKNYQNMAVR (Non-cyclic GFR-binding peptide) [SEQ ID NO: 163] | 41 | 7 |  |  | 
7 | SRVAARSVKMAKVGGGGGGGKEVQVAAEEHGGGGGG (not fully specified; also: cyclic peptide) [SEQ ID NO: 38213] |  |  | 49 | 21 | 
8 | SRVLLRPVQMRKIDKGVVTYKKATVLLEEHDKGVVTY (not fully specified; also: cyclic peptide) [SEQ ID NO: 38216] |  |  | 41 | 11 | 
9 | TPTSSSPINTLYFDDMGVPTYGKIPSSVVDDEYDKVV (not fully specified; also: cyclic peptide) [SEQ ID NO: 38207] |  |  | 41 | 13 | 
10 | TQVAARPVQTRKIDDMGVPTKKATVAAEDHDKGVVTY (not fully specified; also: cyclic peptide) [SEQ ID NO: 38217] |  |  | 42 | 9 | 
11 | VPEAASSLSMLFFEIVRKKPIFLKVYPAATVEDKGVVTY (not fully specified; also: cyclic peptide) [SEQ ID NO: 38201] |  |  | 40 | 19 | 
12 | VPQAAEPLPMLYYDKGVVTYEQLSNAAVRSDKGVVTY (also: cyclic peptide) [SEQ ID NO: 38210] |  |  | 40 | 12 | 
13 | VPQQQEPLTTLYYDEYDKVVEQLSNQQVKSNDKQQII (also: cyclic peptide) [SEQ ID NO: 38211] |  |  | 47 | 14 | 
14 | VPTAAEPISMLYLDEYDKVVKFKYEAAAVSNDKQQII (also: cyclic peptide) [SEQ ID NO: 38206] |  |  | 36 | 8 | 
15 | VPTAASAISILYLDAANNVVLKNYQAAVVEDKGVVTY (also: cyclic peptide) [SEQ ID NO: 38200] |  |  | 41 | 17 | 
16 | VPTDDSATSTLYYDKGVVTYLRKHRDDEHSDKGVVTY (also: cyclic peptide) [SEQ ID NO: 38214] |  |  | 48 | 18 | 
17 | VPTGGEPLTTLYYNDKQQIIEQLSNGGEHSDDMGVPT (also: cyclic peptide) [SEQ ID NO: 38215] |  |  | 39 | 16 | 
18 | VPTMMSNITTQIMRIKPHQGQHIGEMSMMQHNDEYDKVV (also: cyclic peptide) [SEQ ID NO: 38212] |  |  | 51 | 14 | 
19 | VPTSSSPISTLYIDKGVVTYLKYHYSSVAEDEYDKVV (not fully specified; also: cyclic peptide) [SEQ ID NO: 38205] |  |  | 40 | 16 | 
20 | VPTVVSAISTLYLRIKPHQGQHLKNYQVVVVENDKQQII (also: cyclic peptide) [SEQ ID NO: 38202] |  |  | 42 | 9 | 
21 | VPTVVSPISMLYIDDMGVPTYKQYEVVVVEDDMGVPT (also: cyclic peptide) [SEQ ID NO: 38208] |  |  | 39 | 9 | 
22 | WWFWGKVPKPSSAPTQLSAISTLYLDEYDKVVLKNYQNMVVR (Non-cyclic GFR-binding peptide) [SEQ ID NO: 162] | 39 | 8 |  |  | 
23 | ASASPSSVPQDLEPLTILYYVGRTPKVEQLSNMV [GFR-binding compound SEQ ID NO: 55] |  |  |  |  | 32
24 | VPTHHSAISTLYLELAGEKPLKNYQFLQHNK [GFR-binding compound SEQ ID NO: 57] |  |  |  |  | 38
25 | NDEGLECVPTEERPVQVRKIRIKPHQGQKKATVFLQHNK (not fully specified) [GFR-binding compound SEQ ID NO: 54] |  |  |  |  | 41
26 | NDEGLECVPTEERPVQVRKIRIKPHQGQKKATVFLQHNK (not fully specified) [GFR-binding compound SEQ ID NO: 59] |  |  |  |  | 34
27 | VSQDLSAISTLYLKIVRKEPLKNYQEMVEE [GFR-binding compound SEQ ID NO: 58] |  |  |  |  | 49
28 | RNVQCRPTQLEPLPIVYYEIVRKKPEQLSNTLEDHLA (not fully specified) [GFR-binding compound SEQ ID NO: 56] |  |  |  |  | 47
29 | RNVQCRPTQLEPLPIVYYEIVRKKPEQLSNTLEDHLA (not fully specified) [GFR-binding compound SEQ ID NO: 61] |  |  |  |  | 44
